The subject of experiment [1] is COLO 201. Nature of the experiment: Induction of apoptosis in human COLO201 cells assessed as early apoptotic cells at 10 uM by Annexin V-FITC and PI staining based flow cytometry analysis (reference value: 3.2%). It counts as functional. On the technique in general: Flow cytometry measures light scatter and fluorescence of single cells or particles in a stream.
The subject of experiment [2] is COLO 201. Nature of the experiment: Induction of apoptosis in human COLO201 cells assessed as viable cells at 1 uM by Annexin V-FITC and PI staining based flow cytometry analysis (reference value: 90%). Particulars: read-out: Activity. It counts as functional.
The subject of experiment [3] is COLO 201. Nature of the experiment: Induction of apoptosis in human COLO201 cells assessed as early apoptotic cells at 2 uM by Annexin V-FITC and PI staining based flow cytometry analysis (reference value: 3.2%). The experiment is classed as functional.
In experiment [4] the test system is COLO 201. Nature of the experiment: Induction of apoptosis in human COLO201 cells assessed as early apoptotic cells at 1 uM by Annexin V-FITC and PI staining based flow cytometry analysis (reference value: 3.2%). The experiment is classed as functional.
In experiment [5] the test system is COLO 201. Nature of the experiment: Induction of apoptosis in human COLO201 cells assessed as viable cells at 2 uM by Annexin V-FITC and PI staining based flow cytometry analysis (reference value: 90%). The experiment is classed as functional. As to conditions: read-out: Activity.
The subject of experiment [6] is COLO 201. Nature of the experiment: Induction of apoptosis in human COLO201 cells assessed as early apoptotic cells at 0.2 uM by Annexin V-FITC and PI staining based flow cytometry analysis (reference value: 3.2%). It counts as functional.
The test system of experiment [7] is COLO 201. Nature of the experiment: Induction of apoptosis in human COLO201 cells assessed as necrotic cells at 0.2 uM by Annexin V-FITC and PI staining based flow cytometry analysis (reference value: 0.7%). The experiment is classed as functional.
Experiment [8] relates to COLO 201. Nature of the experiment: Induction of apoptosis in human COLO201 cells assessed as late apoptotic cells at 1 uM by Annexin V-FITC and PI staining based flow cytometry analysis (reference value: 6.2%). The experiment is classed as functional.
Experiment [9] concerns COLO 201. Nature of the experiment: Induction of apoptosis in human COLO201 cells assessed as viable cells at 10 uM by Annexin V-FITC and PI staining based flow cytometry analysis (reference value: 90%). The experiment is classed as functional. As to conditions: read-out: Activity.
Experiment [10] has as its target T1, Tyrosine-protein kinase Lck (Homo sapiens, UniProt P06239). Nature of the experiment: Inhibition of recombinant human LCK (64 to 509 residues) incubated for 60 mins in presence of ATP by HTRF method. A general note: Time-resolved FRET reads energy transfer from a long-lived donor to a nearby acceptor.
The target in experiment [11] is T1, Tyrosine-protein kinase Lck. Nature of the experiment: Inhibition of LCK (unknown origin).
Experiment [12] concerns COLO 201. Nature of the experiment: Induction of apoptosis in human COLO201 cells assessed as necrotic cells at 10 uM by Annexin V-FITC and PI staining based flow cytometry analysis (reference value: 0.7%). It counts as functional.
Experiment [13] has as its system COLO 201. Nature of the experiment: Induction of apoptosis in human COLO201 cells assessed as late apoptotic cells at 10 uM by Annexin V-FITC and PI staining based flow cytometry analysis (reference value: 6.2%). The experiment is classed as functional.
The subject of experiment [14] is COLO 201. Nature of the experiment: Induction of apoptosis in human COLO201 cells assessed as necrotic cells at 2 uM by Annexin V-FITC and PI staining based flow cytometry analysis (reference value: 0.7%). The experiment is classed as functional.
Experiment [15] has as its system COLO 201. Nature of the experiment: Induction of apoptosis in human COLO201 cells assessed as late apoptotic cells at 2 uM by Annexin V-FITC and PI staining based flow cytometry analysis (reference value: 6.2%). The experiment is classed as functional.
Experiment [16] relates to COLO 201. Nature of the experiment: Induction of apoptosis in human COLO201 cells assessed as late apoptotic cells at 0.2 uM by Annexin V-FITC and PI staining based flow cytometry analysis (reference value: 6.2%). It counts as functional.
Experiment [17] concerns COLO 201. Nature of the experiment: Induction of apoptosis in human COLO201 cells assessed as necrotic cells at 1 uM by Annexin V-FITC and PI staining based flow cytometry analysis (reference value: 0.7%). The experiment is classed as functional.
Experiment [18] deals with COLO 201. Nature of the experiment: Induction of apoptosis in human COLO201 cells assessed as viable cells at 0.2 uM by Annexin V-FITC and PI staining based flow cytometry analysis ( Rvb = 90%). It counts as functional. Particulars: read-out: Activity.

T1 sequence (P06239 whole entry, the tested form may be a part): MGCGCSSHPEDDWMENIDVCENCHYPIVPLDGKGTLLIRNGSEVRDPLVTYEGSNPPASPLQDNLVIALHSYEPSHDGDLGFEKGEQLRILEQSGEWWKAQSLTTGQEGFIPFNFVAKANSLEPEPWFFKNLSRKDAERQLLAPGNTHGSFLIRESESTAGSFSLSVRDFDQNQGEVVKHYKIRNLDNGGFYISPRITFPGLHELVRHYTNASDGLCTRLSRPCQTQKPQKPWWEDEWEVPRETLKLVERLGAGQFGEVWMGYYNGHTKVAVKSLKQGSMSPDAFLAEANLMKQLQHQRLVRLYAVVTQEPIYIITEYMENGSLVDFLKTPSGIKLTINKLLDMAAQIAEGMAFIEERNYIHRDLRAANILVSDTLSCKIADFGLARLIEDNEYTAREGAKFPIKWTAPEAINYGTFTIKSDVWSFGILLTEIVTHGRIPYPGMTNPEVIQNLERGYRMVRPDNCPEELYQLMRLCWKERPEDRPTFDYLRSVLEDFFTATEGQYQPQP

Regarding `COc1cc(-c2nn(C3CCC(N4CCN(C(C)=O)CC4)CC3)c3ncnc(N)c23)ccc1NC(=O)c1cc2ccccc2n1C` (stereo not drawn), the Activity in the experiment on COLO 201 [1] is recorded as 16.9%; in the experiment on COLO 201 [3], 7.1%; in the experiment with COLO 201 [4], 3.4%; with COLO 201 [6] it was 2.5%; in the experiment with COLO 201 [7], 0.6%; in the experiment with COLO 201 [8] it was 6.6%. Besides, the Activity was 3.8% with COLO 201 [12]; 52.7% in the experiment on COLO 201 [13]; 1.8% in the experiment with COLO 201 [14]; 8.5% in the experiment on COLO 201 [15]; 4.3% in the experiment with COLO 201 [16]; 1.2% in the experiment on COLO 201 [17]. The viability at 1 µM with COLO 201 [2] came to 88.7%. For the same compound, the viability at 2 µM with COLO 201 [5] stood at 82.6%. The viability at 10 µM with COLO 201 [9] was found to be 26.6%. The IC50 in experiment [10] and in experiment [11] was 147 nM each time. Besides, the viability at 0.2 µM in the experiment on COLO 201 [18] worked out at 92.6%.

Source of the values: ChEMBL document CHEMBL5579802, “Identification of 3,4-dihydropyrimido[4,5-d]pyrimidin-2(1H)-one scaffolds as potent Lck inhibitors as anti-cancer agents” (Bioorg Med Chem Lett, 2024).
